From paper PMC4349624, “In vitro synergistic effect of fluoroquinolone analogues in combination with artemisinin against Plasmodium falciparum; their antiplasmodial action in rodent malaria model” (Malaria Journal, 2015)
Converted amounts (≈) assume the structure as drawn. “And” between values parts separate entries of the source, which are not always exact repeats. Equal values may be shown once. “Also recorded” adds a separate entry of the source. Read-outs that look alike come from different tables or passages of the source.

Key:
Plasmodium berghei ANKA = test: Peters' four-day suppressive test in BALB/c mice; type: in vivo; settings: ip, once daily days 0 to 3, BALB/c mice; n = 5
Excerpt: Evaluation of the curative potential of the fluoroquinolone derivatives was done using the method described by Ryley and Peters, 1970 (rodent malaria four-day suppressive test; Peters’ four-day suppressive test). Rodent malaria parasite Plasmodium berghei ANKA was used.
[…] BALB/c inbred albino mice (25–30 g) of the male sex were obtained from the Animal Facility Centre of the Department of Zoology, University of Delhi. The animals were fed ad libitum with standard feed and had free access to water. They were maintained under standard conditions of humidity, temperature (25°C) and 12 hours light/darkness cycles. The animals were acclimatized for two weeks before the commencement of the study and were ensured to exclude all zoonotic agents.
Day 0: Heparinized blood was withdrawn from an infected donor mouse with approximately 25-30% parasitemia, and diluted in 1x PBS to 10^8 parasitized erythrocytes per mL. An aliquot of 0.2 mL (=2 × 10^7 parasitized erythrocytes) of this suspension was injected intraperitoneally (ip) into experimental groups of five mice each. One to three hours post-infection, the experimental groups were treated with varying doses of each of the test compounds (0.5, 1, 10, 25 mg/kg BW) by the ip route. Each compound was made to strength of 5 mg/ml stock solution in 10% DMSO and administered according to desired concentration and individual body weight. Artemisinin was given to the standard drug group and 0.2 mL of normal saline to the negative control group.
Day 1, 2 and 3: 24 hours, 48 hours and 72 hours post-infection, the experimental groups of mice were treated again with the same dose and by the same route as on day 0.
Day 4: 24 hours after the last treatment (i.e., 96 hours post-infection), blood was drawn from the tail region of mice and smears were prepared. […] Differences in parasitemia percentage between treated groups and untreated animals were analysed by a one-way ANOVA test using IBM SPSS Statistics 16.0 and differences considered significant if P < 0.05. […] Percentinhibitionactivity=100–Meanparasitemia/control×100
Untreated control mice typically died approximately one week after infection. […] The mean survival time was calculated in comparison to untreated (Normal saline) and standard drug (artemisinin) treated groups. Differences in survival time between treated groups and untreated animals were analysed by Log-rank (Mantel-Cox) test using GraphPad Prism 5 and differences considered significant if P <0.005. Observations concerning adverse effects due to the compounds were recorded.

[1] = test system: Plasmodium falciparum 3D7 strain; test: antiplasmodial interaction assay, fixed-ratio combination isobologram method with artemisinin; type: cell-based; settings: for antiplasmodial interaction with artemisinin (in words): four fixed-ratio combinations, in vitro; for Drug B Mean FIC50 ± SE: n = 3; for Mean ƩFIC ± SD: combination with artemisinin, over the fixed-ratio combinations
Description: Stock culture of malaria parasite P. falciparum 3D7 strain (chloroquine sensitive) was continuously maintained in vitro using a CO2 incubator under low-oxygen concentration (3%) and high carbon dioxide atmosphere (4%) along with nitrogen (93%), incubated at a temperature of 37°C. The parasites were maintained on O^+ human red blood cells suspended in a complete culture medium. Each litre of RPMI-1640 aqueous culture medium was prepared with 10.4 g of powdered RPMI-1640 (with glutamine but without sodium bicarbonate), 5.94 g of HEPES buffer, 1 g of dextrose and 40 mg of gentamicin. Complete medium was constituted just before use by adding sterile 5% sodium bicarbonate at the rate of 4 ml per 96 ml, and supplemented with 10% (v/v) pooled O^+ human serum. Infected erythrocytes were suspended in this culture media initiated at a haematocrit value of 5% and parasitemia was kept between 2 and 4% with sub-culturing done beyond 5%. Medium was changed once a day and percentage parasitemia was monitored using Giemsa stained slides.
Artemisinin (Sigma Aldrich, USA) was prepared in DMSO to get the stock solution of 1 mg/ml strength. Compounds 10, 12 and 18 were synthesized according to the procedure described by Dixit et al. and each compound was made to strength of 1 mg/ml stock solution in DMSO. The stock solutions were diluted on the day of experiment to get the desired concentrations for each compound. The highest amount of DMSO in diluted concentrations was 0.125%, and had no effect on parasite growth.
In each combination assay, two compounds (Compound A, artemisinin and Compound B, a fluoroquinolone derivative or norfloxacin) were combined in four fixed ratios (4:1, 3:2, 2:3, and 1:4).
Compound dilutions of each combination solution were made in sterile, flat-bottomed, 96-well tissue culture plates as described by Fivelman et al.. Six times two-fold serial dilution was done for each combination in triplicate. Each well contained a total volume of 200 μl of complete culture medium with or without compound and pre-synchronized infected red blood cells (1% parasitemia at 2.5% haematocrit). Control cultures (without compound) were maintained on the same plate in triplicate. Two 96-well plates (for six combinations) were used for each combination experiment. The plates were stacked in a CO2 incubator and incubated at 37°C for 48 hours.
After 48-hour incubation, thin blood smear slides were prepared, air dried, methanol fixed, and stained in Giemsa solution for 40 min. After staining, slides were removed from coupling jar, washed in running tap water and air dried. The Giemsa-stained slides were examined for counting the number of parasites in random adjacent microscopic fields, equivalent to about 4,000 erythrocytes at 1,000 × magnification. Per cent parasitemia was calculated. Reproducibility of counts was checked by two other readers to maintain the quality control.
For each combination assay, IC50 was calculated from two sets of concentration response graphs, each containing compound alone curve and four combination curves.
ƩFIC <1 represents synergism, ƩFIC > = 1 and <2 represents additive interaction, ƩFIC > = 2 and <4 represents slight antagonism while ƩFIC > = 4 represents marked antagonism.

host cell = test system: host cell; design: method as in PMID 22424611; settings: read-out: in vitro host cell cytotoxicity IC50; cited from earlier work
BALB/c mice = test: LD50 test; type: in vivo; settings: ip
Description: Therapeutic Index (TI) values were determined by the formula: TherapeuticIndexTI=MedianlethaldoseLD50/MedianeffectivedoseED50

[2] = test system: 3D7 strain of P. falciparum; settings: cited from earlier work
[3] = artemisinin (A) : drug B ratio 1:4
[4] = artemisinin (A) : drug B ratio 2:3
[5] = artemisinin (A) : drug B ratio 3:2
[6] = artemisinin (A) : drug B ratio 4:1
[7] = ratio A:B 1:4, combined with artemisinin (drug A)
[8] = ratio A:B 2:3, combined with artemisinin (drug A)
[9] = ratio A:B 3:2, combined with artemisinin (drug A)
[10] = ratio A:B 4:1, combined with artemisinin (drug A)
[11] = P. falciparum 3D7, in vitro, read-out: IC50 (equivalent in μM)
[12] = fluoroquinolones in clinical use, reported values, read-out: reported IC50 against 3D7 strain of P. falciparum in vitro

SMILES	Mean ED50 ± SE (Plasmodium berghei ANKA)	interaction (class from Σ FICs) [1, 3]	Σ FICs [1, 3]	interaction (class from Σ FICs) [1, 4]	Σ FICs [1, 4]	interaction (class from Σ FICs) [1, 5]	Σ FICs [1, 5]	interaction (class from Σ FICs) [1, 6]	Σ FICs [1, 6]	antiplasmodial interaction with artemisinin (in words) [1]	Drug B Mean FIC50 ± SE ([1]; ratio A:B 0:5, drug B alone)	Drug B Mean FIC50 ± SE [1, 7]	Drug B Mean FIC50 ± SE [1, 8]	Drug B Mean FIC50 ± SE [1, 9]	Drug B Mean FIC50 ± SE [1, 10]	IC50 (host cell)	Therapeutic Index (TI) = LD50/ED50 (BALB/c mice)	IC50 (inhibited the parasite multiplication rate to 50%) ± SE ([2]; P. falciparum 3D7, in vitro)	IC50 [2, 11]	IC50 [2, 12]	also measured
CCOC(=O)c1cn(Cc2c[nH]nn2)c2cc(Cl)c(F)cc2c1=O [Compound 12]	3.09 mg/kg BW and 3.09 ± 0.22 mg/kg BW	SYN (ƩFIC <1 represents synergism)	0.56	ADD (ƩFIC > = 1 and <2 represents additive interaction)	1.27	SYN (ƩFIC <1 represents synergism)	0.83	SYN (ƩFIC <1 represents synergism)	0.78	highly synergistic interactions	1.11 ± 0.08	0.32 ± 0.01	0.77 ± 0.03	0.23 ± 0.02	0.15 ± 0.003	171 µM	258.90	1.33 ± 0.67 µg/mL (≈ 3.79 µM)	3.79 µM	–	antiplasmodial interaction with artemisinin (in words) ([1]; listed as compound 12): synergistic interaction in three combinations and additive in one
CCn1cc(C(=O)O)c(=O)c2cc(F)c(N3CCNCC3)nc21 [enoxacin, reference compound]	–	–	–	–	–	–	–	–	–	–	–	–	–	–	–	–	–	–	–	121 µM	–
CCOC(=O)c1cn(Cc2cccc(Cl)c2)c2cc(Cl)c(F)cc2c1=O [Compound 18]	2.60 mg/kg BW and 2.60 ± 0.18 mg/kg BW	SYN (ƩFIC <1 represents synergism)	0.55	ADD (ƩFIC > = 1 and <2 represents additive interaction)	1.15	ADD (ƩFIC > = 1 and <2 represents additive interaction)	1.02	SYN (ƩFIC <1 represents synergism)	0.73	synergistic in two combinations, while additive in the other two	0.97 ± 0.08	0.33 ± 0.02	0.66 ± 0.03	0.47 ± 0.03	0.16 ± 0.01	129 µM	307.69	2.73 ± 0.23 µg/mL (≈ 6.92 µM)	6.93 µM	–	–
NC1CCN(c2c(F)cc3c(=O)c(C(=O)O)cn(C4CC4)c3c2Cl)C1 (stereo not drawn) [clinafloxacin, reference compound]	–	–	–	–	–	–	–	–	–	–	–	–	–	–	–	–	–	–	–	37.5 µM	–
CC1COc2c(N3CCN(C)CC3)c(F)cc3c(=O)c(C(=O)O)cn1c23 (stereo not drawn) [ofloxacin, reference compound]	–	–	–	–	–	–	–	–	–	–	–	–	–	–	–	–	–	–	–	152 µM	–
CCOC(=O)c1cn(CC#N)c2cc(Cl)c(F)cc2c1=O [Compound 10]	2.31 mg/kg BW and 2.31 ± 0.19 mg/kg BW	SYN (ƩFIC <1 represents synergism)	0.58	ADD (ƩFIC > = 1 and <2 represents additive interaction)	1.01	SYN (ƩFIC <1 represents synergism)	0.80	SYN (ƩFIC <1 represents synergism)	0.76	highly synergistic interactions; also recorded: synergistic antiplasmodial interaction in three of the four fixed-ratio combinations evaluated and additive in the remaining one	0.93 ± 0.04	0.41 ± 0.03	0.53 ± 0.03	0.22 ± 0.02	0.15 ± 0.02	143 µM	346.32	2.56 ± 0.30 µg/mL (≈ 8.29 µM)	8.69 µM	–	Mean ƩFIC ± SD [1]: 0.788 ± 0.177
CCn1cc(C(=O)O)c(=O)c2cc(F)c(N3CCNCC3)cc21 [Norfloxacin, norfloxacin, reference compound]	–	SYN (ƩFIC <1 represents synergism)	0.74	ADD (ƩFIC > = 1 and <2 represents additive interaction)	1.53	SYN (ƩFIC <1 represents synergism)	0.81	ADD (ƩFIC > = 1 and <2 represents additive interaction)	1.36	synergistic interaction in two combinations, while additive in the remaining two	0.98 ± 0.04	0.60 ± 0.02	0.87 ± 0.03	0.52 ± 0.04	0.45 ± 0.02	–	–	–	–	53.9 µM	Mean ƩFIC ± SD [1]: 1.11 ± 0.394
